Reference: PMC6152937 (Bioorganic & medicinal chemistry letters, 2018)
One block for each molecule: values may come before it.

Key:
Dopamine receptor D1 = Dopamine receptor D1 (Homo sapiens, UniProt P21728); assay: Radio-ligand binding assay screen; settings: cloned receptor; considered inactive
Dopamine receptor D4 = Dopamine receptor D4 (Homo sapiens, UniProt P21917); assay: Radio-ligand binding assay screen; settings: cloned receptor; considered inactive
Muscarinic receptor MS = Muscarinic receptor MS (Homo sapiens, UniProt P08912); assay: Radio-ligand binding assay screen; settings: cloned receptor; considered inactive
5-HT1D = 5-HT1D (Homo sapiens, UniProt P28221); assay: Radio-ligand binding assay screen; settings: cloned receptor; considered inactive
5-HT1E = 5-HT1E (Homo sapiens, UniProt P28566); assay: Radio-ligand binding assay screen; settings: cloned receptor; considered inactive
Histamine receptor H4 = Histamine receptor H4 (Homo sapiens, UniProt Q9H3N8); assay: Radio-ligand binding assay screen; settings: cloned receptor; considered inactive
5-HT5A = 5-HT5A (Homo sapiens, UniProt P47898); assay: Radio-ligand binding assay screen; settings: cloned receptor; considered inactive
5-HT7 = 5-HT7 (Homo sapiens, UniProt P34969); assay: Radio-ligand binding assay screen; settings: cloned receptor; considered inactive
β3 adrenoreceptor = β3 adrenoreceptor (Homo sapiens, UniProt P13945); assay: Radio-ligand binding assay screen; settings: cloned receptor; considered inactive
Histamine receptor H2 = Histamine receptor H2 (Homo sapiens, UniProt P25021); assay: Radio-ligand binding assay screen; settings: cloned receptor; considered inactive
SERT = SERT (Homo sapiens, UniProt P31645); assay: Radio-ligand binding assay screen; settings: cloned transporter; considered inactive
KOR = KOR (Homo sapiens, UniProt P41145); assay: Radio-ligand binding assay screen; settings: cloned receptor; considered inactive
Dopamine receptor D5 = Dopamine receptor D5 (Homo sapiens, UniProt P21918); assay: Radio-ligand binding assay screen; settings: cloned receptor; considered inactive
α1B adrenoreceptor = α1B adrenoreceptor (Homo sapiens, UniProt P35368); assay: Radio-ligand binding assay screen; settings: cloned receptor; considered inactive
Histamine receptor H3 = Histamine receptor H3 (Homo sapiens, UniProt Q9Y5N1); assay: Radio-ligand binding assay screen; settings: cloned receptor; considered inactive
α2A adrenoreceptor = α2A adrenoreceptor (Homo sapiens, UniProt P08913); assay: Radio-ligand binding assay screen; settings: cloned receptor; considered inactive
5-HT3 = 5-HT3 (Homo sapiens, UniProt P46098); assay: Radio-ligand binding assay screen; settings: cloned receptor; considered inactive
β2 adrenoreceptor = β2 adrenoreceptor (Homo sapiens, UniProt P07550); assay: Radio-ligand binding assay screen; settings: cloned receptor; considered inactive
DOR = DOR (Homo sapiens, UniProt P41143); assay: Radio-ligand binding assay screen; settings: cloned receptor; considered inactive
DAT = DAT (Homo sapiens, UniProt Q01959); assay: Radio-ligand binding assay screen; settings: cloned transporter; considered inactive
5-HT1A = 5-HT1A (Homo sapiens, UniProt P08908); assay: Radio-ligand binding assay screen; settings: cloned receptor; considered inactive
Histamine receptor H1 = Histamine receptor H1 (Homo sapiens, UniProt P35367); assay: Radio-ligand binding assay screen; settings: cloned receptor; considered inactive
Muscarinic receptor M2 = Muscarinic receptor M2 (Homo sapiens, UniProt P08172); assay: Radio-ligand binding assay screen; settings: cloned receptor; considered inactive
rSigma2 = rSigma2 (Rattus norvegicus, UniProt Q5U3Y7); assay: Radio-ligand binding assay screen; settings: cloned receptor; considered inactive
NET = NET (Homo sapiens, UniProt P23975); assay: Radio-ligand binding assay screen; settings: cloned transporter; considered inactive
β1 adrenoreceptor = β1 adrenoreceptor (Homo sapiens, UniProt P08588); assay: Radio-ligand binding assay screen; settings: cloned receptor; considered inactive
α1A adrenoreceptor = α1A adrenoreceptor (Homo sapiens, UniProt P35348); assay: Radio-ligand binding assay screen; settings: cloned receptor; considered inactive
5-HT1B = 5-HT1B (Homo sapiens, UniProt P28222); assay: Radio-ligand binding assay screen; settings: cloned receptor; considered inactive
5-HT2B = 5-HT2B (Homo sapiens, UniProt P41595); assay: Radio-ligand binding assay screen; settings: cloned receptor; considered inactive
Muscarinic receptor M4 = Muscarinic receptor M4 (Homo sapiens, UniProt P08173); assay: Radio-ligand binding assay screen; settings: cloned receptor; considered inactive
Dopamine receptor D3 = Dopamine receptor D3 (Homo sapiens, UniProt P35462); assay: Radio-ligand binding assay screen; settings: cloned receptor; considered inactive
rSigma1 = rSigma1 (Rattus norvegicus, UniProt Q9R0C9); assay: Radio-ligand binding assay screen; settings: cloned receptor; considered inactive
MOR = MOR (Homo sapiens, UniProt P35372); assay: Radio-ligand binding assay screen; settings: cloned receptor; considered inactive
Dopamine receptor D2 = Dopamine receptor D2 (Homo sapiens, UniProt P14416); assay: Radio-ligand binding assay screen; settings: cloned receptor; considered inactive
5-HT2C = 5-HT2C (Homo sapiens, UniProt P28335); assay: Radio-ligand binding assay screen; settings: cloned receptor; considered inactive
5-HT2A = 5-HT2A (Homo sapiens, UniProt P28223); assay: Radio-ligand binding assay screen; settings: cloned receptor; considered inactive
α1Δ adrenoreceptor = α1Δ adrenoreceptor (Homo sapiens, UniProt P25100); assay: Radio-ligand binding assay screen; settings: cloned receptor; considered inactive
Muscarinic receptor M1 = Muscarinic receptor M1 (Homo sapiens, UniProt P11229); assay: Radio-ligand binding assay screen; settings: cloned receptor; considered inactive
Muscarinic receptor M3 = Muscarinic receptor M3 (Homo sapiens, UniProt P20309); assay: Radio-ligand binding assay screen; settings: cloned receptor; considered inactive
5-HT6 = 5-HT6 (Homo sapiens, UniProt P50406); assay: Radio-ligand binding assay screen; settings: cloned receptor; considered inactive
human GABAB receptor [1] = biological target: T1, human GABAB receptor (Homo sapiens, UniProt Q9UBS5); settings: concentrations up to 100 μM, racemic mixtures
human GABAB receptor [2] = biological target: T1, human GABAB receptor; settings: read-out: GABAB EC50; agonist activity, HEK293/Cre-luc, ± standard error; ref [19]; cited from earlier work

T1 sequence (Q9UBS5 15-961 limits assumed): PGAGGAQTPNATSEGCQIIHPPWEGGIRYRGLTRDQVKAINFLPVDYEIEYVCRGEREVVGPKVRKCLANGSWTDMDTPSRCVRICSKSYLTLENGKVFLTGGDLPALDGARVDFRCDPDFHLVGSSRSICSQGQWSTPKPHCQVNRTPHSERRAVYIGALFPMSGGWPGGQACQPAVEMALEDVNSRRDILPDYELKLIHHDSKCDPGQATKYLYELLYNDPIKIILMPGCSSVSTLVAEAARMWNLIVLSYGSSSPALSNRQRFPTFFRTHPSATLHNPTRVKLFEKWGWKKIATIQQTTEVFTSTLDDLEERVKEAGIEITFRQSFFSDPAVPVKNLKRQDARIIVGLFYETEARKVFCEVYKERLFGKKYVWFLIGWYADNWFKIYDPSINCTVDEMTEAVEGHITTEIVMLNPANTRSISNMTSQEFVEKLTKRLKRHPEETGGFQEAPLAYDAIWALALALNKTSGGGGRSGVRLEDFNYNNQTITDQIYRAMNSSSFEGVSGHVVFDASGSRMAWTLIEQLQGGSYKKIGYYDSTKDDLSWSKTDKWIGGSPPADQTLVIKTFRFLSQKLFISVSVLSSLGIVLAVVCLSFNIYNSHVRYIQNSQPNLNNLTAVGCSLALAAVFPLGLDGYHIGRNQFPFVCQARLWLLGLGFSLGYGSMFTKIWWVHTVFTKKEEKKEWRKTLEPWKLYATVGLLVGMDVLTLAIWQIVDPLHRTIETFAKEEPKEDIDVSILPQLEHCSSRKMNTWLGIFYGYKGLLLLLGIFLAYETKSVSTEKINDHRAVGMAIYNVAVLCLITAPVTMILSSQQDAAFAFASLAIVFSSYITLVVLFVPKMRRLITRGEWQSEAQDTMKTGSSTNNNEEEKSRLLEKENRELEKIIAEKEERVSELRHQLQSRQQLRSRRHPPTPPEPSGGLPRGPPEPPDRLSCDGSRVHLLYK
T1 sequence (O75899 42-941 partner): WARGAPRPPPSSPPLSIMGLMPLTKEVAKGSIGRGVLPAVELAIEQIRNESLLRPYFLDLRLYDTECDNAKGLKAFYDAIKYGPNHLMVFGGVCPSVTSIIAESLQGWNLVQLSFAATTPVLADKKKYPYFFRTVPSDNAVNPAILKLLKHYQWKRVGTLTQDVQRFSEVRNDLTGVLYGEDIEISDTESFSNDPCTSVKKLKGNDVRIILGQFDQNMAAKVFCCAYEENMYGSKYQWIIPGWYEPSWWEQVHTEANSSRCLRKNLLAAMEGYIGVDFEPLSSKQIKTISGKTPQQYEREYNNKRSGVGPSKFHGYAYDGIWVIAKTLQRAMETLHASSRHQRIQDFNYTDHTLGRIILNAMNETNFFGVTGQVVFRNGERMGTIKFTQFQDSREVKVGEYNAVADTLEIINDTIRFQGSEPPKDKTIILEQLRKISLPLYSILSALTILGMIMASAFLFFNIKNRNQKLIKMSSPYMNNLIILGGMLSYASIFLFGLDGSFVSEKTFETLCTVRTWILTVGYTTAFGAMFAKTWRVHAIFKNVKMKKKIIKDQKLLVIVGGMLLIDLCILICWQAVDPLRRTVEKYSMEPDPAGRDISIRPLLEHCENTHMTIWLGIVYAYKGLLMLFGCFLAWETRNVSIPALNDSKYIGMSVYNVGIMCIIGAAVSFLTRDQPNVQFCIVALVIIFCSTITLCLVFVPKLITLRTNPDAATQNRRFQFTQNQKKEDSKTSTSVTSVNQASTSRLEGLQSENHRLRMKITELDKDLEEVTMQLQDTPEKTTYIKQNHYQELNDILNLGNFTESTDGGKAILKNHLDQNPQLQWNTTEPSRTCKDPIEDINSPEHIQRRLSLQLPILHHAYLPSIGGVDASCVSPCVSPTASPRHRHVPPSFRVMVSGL
Chain of 5-HT1E (P28566 whole entry): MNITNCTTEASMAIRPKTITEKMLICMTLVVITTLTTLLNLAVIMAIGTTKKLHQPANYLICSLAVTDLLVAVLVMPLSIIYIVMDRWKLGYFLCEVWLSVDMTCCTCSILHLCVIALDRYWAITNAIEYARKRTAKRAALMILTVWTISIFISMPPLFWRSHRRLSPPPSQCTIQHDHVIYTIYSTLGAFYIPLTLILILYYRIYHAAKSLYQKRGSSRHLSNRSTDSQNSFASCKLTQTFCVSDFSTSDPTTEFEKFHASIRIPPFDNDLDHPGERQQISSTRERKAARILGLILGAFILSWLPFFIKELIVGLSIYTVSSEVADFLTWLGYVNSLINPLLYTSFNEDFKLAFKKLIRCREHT
Chain of 5-HT1A (P08908 whole entry): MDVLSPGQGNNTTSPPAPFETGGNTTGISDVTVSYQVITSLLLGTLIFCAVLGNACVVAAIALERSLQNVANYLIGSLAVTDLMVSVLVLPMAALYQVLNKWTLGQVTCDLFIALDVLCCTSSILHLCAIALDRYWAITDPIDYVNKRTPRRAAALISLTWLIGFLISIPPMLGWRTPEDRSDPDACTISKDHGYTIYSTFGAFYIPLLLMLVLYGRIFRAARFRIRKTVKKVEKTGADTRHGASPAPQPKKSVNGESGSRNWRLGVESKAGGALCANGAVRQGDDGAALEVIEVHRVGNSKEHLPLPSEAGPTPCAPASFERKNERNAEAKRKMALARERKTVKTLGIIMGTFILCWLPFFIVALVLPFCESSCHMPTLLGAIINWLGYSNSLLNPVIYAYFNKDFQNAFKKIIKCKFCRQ
Chain of NET (P23975 whole entry): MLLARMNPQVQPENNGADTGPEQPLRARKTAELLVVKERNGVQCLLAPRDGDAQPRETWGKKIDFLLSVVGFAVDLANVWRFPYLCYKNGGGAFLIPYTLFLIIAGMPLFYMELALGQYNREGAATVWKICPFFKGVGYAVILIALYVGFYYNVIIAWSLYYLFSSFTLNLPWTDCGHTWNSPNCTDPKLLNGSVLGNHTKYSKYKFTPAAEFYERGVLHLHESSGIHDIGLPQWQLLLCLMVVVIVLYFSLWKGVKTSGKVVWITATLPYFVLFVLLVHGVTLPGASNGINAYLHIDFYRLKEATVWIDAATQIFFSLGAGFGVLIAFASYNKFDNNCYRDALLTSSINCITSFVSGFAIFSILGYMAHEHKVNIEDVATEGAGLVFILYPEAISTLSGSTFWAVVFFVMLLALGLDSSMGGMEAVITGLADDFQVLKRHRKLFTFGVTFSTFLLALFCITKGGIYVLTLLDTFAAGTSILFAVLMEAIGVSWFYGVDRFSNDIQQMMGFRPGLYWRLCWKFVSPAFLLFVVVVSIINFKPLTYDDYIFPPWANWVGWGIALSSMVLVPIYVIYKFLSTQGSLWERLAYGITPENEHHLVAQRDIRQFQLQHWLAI
Chain of 5-HT2A (P28223 whole entry): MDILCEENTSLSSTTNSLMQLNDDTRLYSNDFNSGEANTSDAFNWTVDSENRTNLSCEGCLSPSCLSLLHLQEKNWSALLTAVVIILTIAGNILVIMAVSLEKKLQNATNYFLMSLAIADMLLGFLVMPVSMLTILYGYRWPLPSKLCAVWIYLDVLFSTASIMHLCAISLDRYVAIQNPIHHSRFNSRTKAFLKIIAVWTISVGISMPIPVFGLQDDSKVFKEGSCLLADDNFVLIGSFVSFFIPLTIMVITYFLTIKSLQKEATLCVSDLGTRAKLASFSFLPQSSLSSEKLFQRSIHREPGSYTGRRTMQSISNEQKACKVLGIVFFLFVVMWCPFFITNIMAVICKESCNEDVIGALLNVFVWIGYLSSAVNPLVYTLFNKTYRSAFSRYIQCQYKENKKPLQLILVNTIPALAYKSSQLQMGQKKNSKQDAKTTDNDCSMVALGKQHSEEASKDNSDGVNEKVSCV
Chain of Muscarinic receptor M3 (P20309 whole entry): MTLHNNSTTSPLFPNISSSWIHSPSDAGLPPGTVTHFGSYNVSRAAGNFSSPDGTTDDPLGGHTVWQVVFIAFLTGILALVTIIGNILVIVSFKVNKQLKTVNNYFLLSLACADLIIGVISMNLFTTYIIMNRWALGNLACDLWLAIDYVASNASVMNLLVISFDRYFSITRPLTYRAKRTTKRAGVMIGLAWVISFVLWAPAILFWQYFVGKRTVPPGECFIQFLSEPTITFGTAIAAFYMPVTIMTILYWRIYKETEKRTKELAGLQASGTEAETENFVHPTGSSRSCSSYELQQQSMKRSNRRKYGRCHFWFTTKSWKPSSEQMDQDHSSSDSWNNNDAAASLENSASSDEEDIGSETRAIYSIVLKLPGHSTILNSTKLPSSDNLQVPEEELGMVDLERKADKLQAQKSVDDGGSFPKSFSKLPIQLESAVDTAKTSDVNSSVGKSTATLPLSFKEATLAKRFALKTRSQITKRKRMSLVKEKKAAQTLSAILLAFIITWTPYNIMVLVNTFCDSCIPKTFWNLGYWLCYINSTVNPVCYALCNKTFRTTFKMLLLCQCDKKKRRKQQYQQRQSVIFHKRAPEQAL
Chain of Muscarinic receptor M4 (P08173 whole entry): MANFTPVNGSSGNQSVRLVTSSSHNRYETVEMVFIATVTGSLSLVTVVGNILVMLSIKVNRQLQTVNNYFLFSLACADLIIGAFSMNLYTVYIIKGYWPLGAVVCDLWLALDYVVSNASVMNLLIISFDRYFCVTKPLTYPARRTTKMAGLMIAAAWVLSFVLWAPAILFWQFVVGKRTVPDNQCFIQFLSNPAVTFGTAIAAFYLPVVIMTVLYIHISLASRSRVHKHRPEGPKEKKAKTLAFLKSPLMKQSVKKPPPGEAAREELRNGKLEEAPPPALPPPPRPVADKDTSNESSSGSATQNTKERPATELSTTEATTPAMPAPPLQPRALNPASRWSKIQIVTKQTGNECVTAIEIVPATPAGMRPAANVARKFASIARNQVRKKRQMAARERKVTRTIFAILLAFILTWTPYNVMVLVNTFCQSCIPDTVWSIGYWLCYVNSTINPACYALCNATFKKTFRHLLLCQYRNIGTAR
Chain of rSigma2 (Q5U3Y7 whole entry): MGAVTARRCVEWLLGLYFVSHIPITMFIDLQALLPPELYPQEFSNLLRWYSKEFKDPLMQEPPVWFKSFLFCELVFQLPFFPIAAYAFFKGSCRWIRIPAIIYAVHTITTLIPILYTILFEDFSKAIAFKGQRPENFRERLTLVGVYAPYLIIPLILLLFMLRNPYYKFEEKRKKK

SMILES: CC(C)(C)OC(=O)NC(c1ccccc1)C(F)(F)C(=O)c1ccc2ccccc2c1 (stereo not drawn) [Compound 11]
inhibition, D1 (Dopamine receptor D1): less than 30% | inhibition, D4 (Dopamine receptor D4): less than 30% | inhibition, MS (Muscarinic receptor MS): less than 30% | inhibition, 5-HT1D (5-HT1D): less than 30% | inhibition, 5-HT1E (5-HT1E): less than 30% | inhibition, H4 (Histamine receptor H4): less than 30% | inhibition, 5-HT5A (5-HT5A): less than 30% | inhibition, 5-HT7 (5-HT7): less than 30% | inhibition, β3 (β3 adrenoreceptor): less than 30% | inhibition, H2 (Histamine receptor H2): less than 30% | inhibition, SERT (SERT): less than 30% | inhibition, KOR (KOR): less than 30% | inhibition, D5 (Dopamine receptor D5): less than 30% | inhibition, α1B (α1B adrenoreceptor): less than 30% | inhibition, H3 (Histamine receptor H3): less than 30% | inhibition, α2A (α2A adrenoreceptor): less than 30% | inhibition, 5-HT3 (5-HT3): less than 30% | inhibition, β2 (β2 adrenoreceptor): less than 30% | inhibition, DOR (DOR): less than 30% | inhibition, DAT (DAT): less than 30% | inhibition, 5-HT1A (5-HT1A): less than 30% | inhibition, H1 (Histamine receptor H1): less than 30% | inhibition, M2 (Muscarinic receptor M2): less than 30% | inhibition, rSigma2 (rSigma2): less than 30% | inhibition, NET (NET): less than 30% | inhibition, β1 (β1 adrenoreceptor): less than 30% | inhibition, α1A (α1A adrenoreceptor): less than 30% | inhibition, 5-HT1B (5-HT1B): less than 30% | inhibition, 5-HT2B (5-HT2B): less than 30% | inhibition, M4 (Muscarinic receptor M4): less than 30% | inhibition, D3 (Dopamine receptor D3): less than 30% | inhibition, rSigma1 (rSigma1): less than 30% | inhibition, MOR (MOR): less than 30% | inhibition, D2 (Dopamine receptor D2): less than 30% | inhibition, 5-HT2C (5-HT2C): less than 30% | inhibition, 5-HT2A (5-HT2A): less than 30% | inhibition, α1Δ (α1Δ adrenoreceptor): less than 30% | inhibition, M1 (Muscarinic receptor M1): less than 30% | inhibition, M3 (Muscarinic receptor M3): less than 30% | inhibition, 5-HT6 (5-HT6): less than 30%

SMILES: O=C(C12CC3CC(CC(C3)C1)C2)C(F)(F)C(O)/C=C/c1ccccc1 (stereo not drawn) [Compound 9]
EC50 (human GABAB receptor [2]): 40 ± 3.59 µM

SMILES: CCc1ccc(C(O)C(F)(F)C(=O)C23CC4CC(CC(C4)C2)C3)cc1 (stereo not drawn) [Compound 4]
Agonist activity at the GABAB receptor (in words) (human GABAB receptor [1]): inactive

SMILES: CC(=O)c1ccc(C(O)C(F)(F)C(=O)C23CC4CC(CC(C4)C2)C3)cc1 (stereo not drawn) [Compound 3]
inhibition, D1 (Dopamine receptor D1): less than 30% | inhibition, D4 (Dopamine receptor D4): less than 30% | inhibition, MS (Muscarinic receptor MS): less than 30% | inhibition, 5-HT1D (5-HT1D): less than 30% | inhibition, 5-HT1E (5-HT1E): less than 30% | inhibition, H4 (Histamine receptor H4): less than 30% | inhibition, 5-HT5A (5-HT5A): less than 30% | inhibition, 5-HT7 (5-HT7): less than 30% | inhibition, β3 (β3 adrenoreceptor): less than 30% | inhibition, H2 (Histamine receptor H2): less than 30% | inhibition, SERT (SERT): less than 30% | inhibition, KOR (KOR): less than 30% | inhibition, D5 (Dopamine receptor D5): less than 30% | inhibition, α1B (α1B adrenoreceptor): less than 30% | inhibition, H3 (Histamine receptor H3): less than 30% | inhibition, α2A (α2A adrenoreceptor): less than 30% | inhibition, 5-HT3 (5-HT3): less than 30% | inhibition, β2 (β2 adrenoreceptor): less than 30% | inhibition, DOR (DOR): less than 30% | inhibition, DAT (DAT): less than 30% | inhibition, 5-HT1A (5-HT1A): less than 30% | inhibition, H1 (Histamine receptor H1): less than 30% | inhibition, M2 (Muscarinic receptor M2): less than 30% | inhibition, rSigma2 (rSigma2): less than 30% | inhibition, NET (NET): less than 30% | inhibition, β1 (β1 adrenoreceptor): less than 30% | inhibition, α1A (α1A adrenoreceptor): less than 30% | inhibition, 5-HT1B (5-HT1B): less than 30% | inhibition, 5-HT2B (5-HT2B): less than 30% | inhibition, M4 (Muscarinic receptor M4): less than 30% | inhibition, D3 (Dopamine receptor D3): less than 30% | inhibition, rSigma1 (rSigma1): less than 30% | inhibition, MOR (MOR): less than 30% | inhibition, D2 (Dopamine receptor D2): less than 30% | inhibition, 5-HT2C (5-HT2C): less than 30% | inhibition, 5-HT2A (5-HT2A): less than 30% | inhibition, α1Δ (α1Δ adrenoreceptor): less than 30% | inhibition, M1 (Muscarinic receptor M1): less than 30% | inhibition, M3 (Muscarinic receptor M3): less than 30% | inhibition, 5-HT6 (5-HT6): less than 30%

Further lines, results first:

Agonist activity at the GABAB receptor (in words) (human GABAB receptor [1]): inactive
SMILES: C/C=C/C=C/C(NCc1ccccc1)C(F)(F)C(=O)c1ccc2ccccc2c1 (stereo not drawn) [Compound 16]

Agonist activity at the GABAB receptor (in words) (human GABAB receptor [1]): moderate activity
SMILES: O=C(c1ccc(Cl)cc1)C(F)(F)C(NCc1ccccc1)c1ccccc1 (stereo not drawn) [Compound 17]
